# Tests used:
# [1] = tested on: BMI1; assay: Western blot of BMI1 and H2AUb in SCC23 and SCC1 cells; assay type: cell-based, human
# Procedure: Human SCC23 and SCC1 cells were grown in DMEM containing 10% FBS and antibiotics (streptomycin and penicillin) at 37° C. in a 5% CO2 atmosphere. To generate lentiviruses, scramble control (shCtrl, Addgene, Cat #1864; see Sarbassov et al Science 2005 Feb. 18; 307(5712):1098-101) and BMI1 specific shRNA lentiviral plasmids (shBmi1, Sigma-Aldrich, Cat #TRCN0000020156, comprising […], SEQ ID NO:35) were transfected into HEK293T cells with two helper plasmids psPAX2 (Addgene, Cat #12260) and pMD2.G (Addgene, Cat #12259). Viral supernatant was harvested 72 h after transfection and passed through a 0.45 μm filter to remove cell debris and live cells. Collected lentiviruses were used directly to infect cells with the addition of polybrene (Sigma-Aldrich, Cat #H9268), or frozen at −80° C. for later use. […]
# Cells were lysed using the radioimmunoprecipitation assay (RIPA) buffer (Sigma-Aldrich, Cat #R0278) added with a cocktail of protease inhibitors (Thermo Fisher Scientific, Cat ##78430) and phosphatase inhibitors (Sigma-Aldrich, Cat #4906845001). […] The signals were detected using the Clarity Western ECL kit (Bio-Rad, Cat #1705060). […] After treatment, supernatants were collected, and the protein levels of CCL5, CXCL9, CXCL10 and CXCL11 were measured with ELISA (R&D Systems, Cat #DRN00B, DCX900, DIP100, DCX110) according to the manufacturer's instructions.
# [2] = tested on: pH2A.X; assay: pH2A.X immunofluorescent staining in 4NQO-induced HNSCC; set-up: species or system mouse; settings: 4NQO-induced HNSCC in vivo
smiles,measurement,setting,value
"COc1cc(Br)c(Nc2nc(-c3c(C)nc4ncccn34)cs2)c(Br)c1 [PTC209, N-(2,6-dibromo-4-methoxyphenyl)-4-(2-methylimidazo[1,2-a]pyrimidin-3-yl)thiazol-2-amine]",BMI1 and H2AUb levels,[1],reduced BMI1 and H2AUb in SCC23 and SCC1 cells in a dose-dependent manner
same,pH2A.X in HNSCC,[2],significantly increased

# Source: patent US20230233566A1, “INHIBITION OF BMI1 ELIMINATES CANCER STEM CELLS AND ACTIVATES ANTITUMOR IMMUNITY” (The Regents of the University of California, priority 2020, published 2023)
